The values that follow come from article PMC12409578 (ACS Omega, 2025).

Entries after “also recorded” stand apart in the source; their conditions may differ.

By IC50 is commonly meant the midpoint of a concentration-inhibition curve. Read a high IC50 as lower potency. What is called viability is a read-out of living cells in per cent, often relative to untreated cells.

In data set [1] the target is T1, AChE (from electric eel) (Electrophorus electricus, UniProt O42275).
T1 construct: AChE (from electric eel); from tissue
T1 sequence (O42275 24-633): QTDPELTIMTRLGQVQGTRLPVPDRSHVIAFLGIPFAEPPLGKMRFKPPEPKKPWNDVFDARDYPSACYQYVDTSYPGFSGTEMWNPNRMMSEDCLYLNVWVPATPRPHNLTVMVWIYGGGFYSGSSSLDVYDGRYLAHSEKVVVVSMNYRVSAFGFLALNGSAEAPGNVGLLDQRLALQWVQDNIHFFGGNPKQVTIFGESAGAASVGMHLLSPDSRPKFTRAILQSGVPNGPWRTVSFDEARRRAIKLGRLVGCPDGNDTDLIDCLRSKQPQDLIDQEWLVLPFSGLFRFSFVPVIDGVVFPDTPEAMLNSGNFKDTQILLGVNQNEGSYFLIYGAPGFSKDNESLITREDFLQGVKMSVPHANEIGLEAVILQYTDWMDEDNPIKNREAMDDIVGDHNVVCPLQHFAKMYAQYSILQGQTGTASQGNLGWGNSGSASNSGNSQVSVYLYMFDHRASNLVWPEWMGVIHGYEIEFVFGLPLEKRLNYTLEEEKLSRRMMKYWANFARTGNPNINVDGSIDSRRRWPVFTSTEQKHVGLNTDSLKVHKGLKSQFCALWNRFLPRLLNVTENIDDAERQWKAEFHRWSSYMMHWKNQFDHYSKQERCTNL
Kind of data set: biochemical. Conditions: for Ki: Lineweaver–Burk plots, mean ± SEM, read-out: AChE K I; for IC50: electric eel AChE, ATChI substrate, 37 °C, pH 8.0; for selectivity for AChE than for BChE (in words): from K I values / selectivity index. The data set is classed as biochemical.

The target of data set [2] is T2, BChE (from equine serum) (Equus caballus, UniProt P81908).
T2 construct: BChE (from equine serum); from tissue; host or cells: equine serum
T2 sequence (P81908 whole entry): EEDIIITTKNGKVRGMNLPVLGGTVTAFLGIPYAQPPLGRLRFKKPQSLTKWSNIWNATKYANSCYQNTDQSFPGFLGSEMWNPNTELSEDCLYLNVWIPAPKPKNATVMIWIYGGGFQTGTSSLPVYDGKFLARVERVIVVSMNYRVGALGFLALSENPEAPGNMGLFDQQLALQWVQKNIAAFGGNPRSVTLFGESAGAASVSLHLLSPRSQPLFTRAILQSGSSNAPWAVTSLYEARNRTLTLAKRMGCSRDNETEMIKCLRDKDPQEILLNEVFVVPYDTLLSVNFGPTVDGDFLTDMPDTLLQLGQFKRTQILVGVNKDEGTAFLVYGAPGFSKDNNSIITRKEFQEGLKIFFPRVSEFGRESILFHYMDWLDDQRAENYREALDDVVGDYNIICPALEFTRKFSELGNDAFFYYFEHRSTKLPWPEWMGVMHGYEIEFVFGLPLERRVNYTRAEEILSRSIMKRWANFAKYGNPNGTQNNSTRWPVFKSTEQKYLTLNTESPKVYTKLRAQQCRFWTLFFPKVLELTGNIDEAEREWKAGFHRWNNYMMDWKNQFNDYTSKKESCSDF
The data set is described as follows: biochemical. The note with it: for Ki: Lineweaver–Burk plots, mean ± SEM, read-out: BChE K I; for IC50: equine serum BChE, BChI substrate, 37 °C, pH 8.0.

The nature of data set [3]: MTT cytotoxicity test on HUVEC cell line. The data set is classed as cell-based. Conditions: human, HUVEC cells (healthy cell line). As to the method: Cell culture studies were conducted using the previously mentioned method , and HUVEC (healthy cell line) was grown for this study. After the cells were grown, the maximum dose accepted as 100 μM drug concentration was applied to the cell line for all compounds, and cell viability was determined. , The results were illustrated in Table .
The cytotoxic effect of all compounds by MTT analysis was performed to determine the proliferation on the HUVEC cell line. The MTT [3-(4,5-dimethyl-2-thiazol)-2,5-diphenyl-2H-tetrazolium bromide] cytotoxicity assay was employed according to previous studies with minor modifications. −

Regarding `COc1ccc(C2=NN(c3nc(-c4ccccc4)cs3)C(c3ccc(C)s3)C2)cc1OC` (stereo not drawn) [Compound 3a, 2-[3-(3,4-Dimethoxyphenyl)-5-(5-methylthiophen-2-yl)-4,5-dihydro-1H-pyrazol-1-yl]-4-phenylthiazole], in data set [1], the “SI (selectivity index) = K I (AChE)/ K I (BChE)” value (from here on “SI (selectivity index) = K I”) is 0.660, the Ki is 886 ± 54 nM and the half-inhibitory concentration (IC50) is 2850 nM. For the same molecule, in data set [2], the Ki was found to be 1350 ± 83 nM and the IC50 came to 4300 nM. The viability at 24 h, 100 µM in data set [3] is 99.2%.
As to `COc1ccc(C2=NN(c3nc(-c4ccc(C)cc4)cs3)C(c3ccc(C)s3)C2)cc1OC` (stereo not drawn) [Compound 3b, 2-[3-(3,4-Dimethoxyphenyl)-5-(5-methylthiophen-2-yl)-4,5-dihydro-1H-pyrazol-1-yl]-4-(4-methylphenyl)thiazole], in data set [1], the “SI (selectivity index) = K I” value is reported as 0.361, the Ki stood at 804 ± 62 nM, the 50% inhibitory concentration (IC50) stood at 4010 nM and the “selectivity for AChE than for BChE (in words)” value (shortened to “selectivity for AChE than”) is recorded as “more significant selectivity”. In data set [2], the Ki was found to be 2220 ± 132 nM and half-maximal inhibition (IC50) required 4150 nM. Further, the viability at 24 h, 100 µM in data set [3] came to 133%.
For the molecule `COc1ccc(-c2csc(N3N=C(c4ccc(OC)c(OC)c4)CC3c3ccc(C)s3)n2)cc1` (stereo not drawn) [Compound 3c, 2-[3-(3,4-Dimethoxyphenyl)-5-(5-methylthiophen-2-yl)-4,5-dihydro-1H-pyrazol-1-yl]-4-(4-methoxyphenyl)thiazole], in data set [1], the “SI (selectivity index) = K I” value is reported as 1.016, the Ki was found to be 1180 ± 83 nM and 4810 nM corresponded to half-maximal inhibition (IC50). In data set [2], the Ki came out at 1160 ± 62 nM and the midpoint of inhibition, the IC50, lay at 3070 nM. For the same molecule, the viability at 24 h, 100 µM in data set [3] is 97.2%.
With `COc1ccc(C2=NN(c3nc(-c4ccc(Cl)cc4)cs3)C(c3ccc(C)s3)C2)cc1OC` (stereo not drawn) [Compound 3d, 2-[3-(3,4-Dimethoxyphenyl)-5-(5-methylthiophen-2-yl)-4,5-dihydro-1H-pyrazol-1-yl]-4-(4-chlorophenyl)thiazole], in data set [1], the “SI (selectivity index) = K I” value is recorded as 0.074, the Ki amounted to 121 ± 7 nM, inhibition was half-maximal at 523 nM (IC50) and the “selectivity for AChE than” value was “more significant selectivity”. Moreover, in data set [2], the Ki was 1640 ± 85 nM and the midpoint of inhibition, the IC50, lay at 6030 nM. In addition, the viability at 24 h, 100 µM in data set [3] came out at 126%.
Turning to `COc1ccc(C2=NN(c3nc(-c4ccc(F)cc4)cs3)C(c3ccc(C)s3)C2)cc1OC` (stereo not drawn) [Compound 3e, 2-[3-(3,4-Dimethoxyphenyl)-5-(5-methylthiophen-2-yl)-4,5-dihydro-1H-pyrazol-1-yl]-4-(4-fluorophenyl)thiazole], in data set [1], the “SI (selectivity index) = K I” value was 0.082; the Ki stood at 143 ± 84 nM; the midpoint of inhibition, the IC50, lay at 385 nM; the “selectivity for AChE than” value is reported as “more significant selectivity”. In data set [2], the Ki was determined as 1720 ± 150 nM and the half-maximal inhibitory concentration (IC50) stood at 3320 nM. In addition, the viability at 24 h, 100 µM in data set [3] was 118%.
For the molecule `COc1ccc(C2=NN(c3nc(-c4ccc([N+](=O)[O-])cc4)cs3)C(c3ccc(C)s3)C2)cc1OC` (stereo not drawn) [Compound 3f, 2-[3-(3,4-Dimethoxyphenyl)-5-(5-methylthiophen-2-yl)-4,5-dihydro-1H-pyrazol-1-yl]-4-(4-nitrophenyl)thiazole], in data set [1], the “SI (selectivity index) = K I” value is recorded as 0.039, the Ki is 57 ± 3 nM, the IC50 came to 382 nM and the “selectivity for AChE than” value is “highest selectivity for AChE; also recorded: more significant selectivity”. In data set [2], the Ki worked out at 1460 ± 71 nM and the half-maximal inhibitory concentration (IC50) stood at 4250 nM. Besides, in data set [3], the viability at 24 h, 100 µM came to 86%.
For `COc1ccc(C2=NN(c3nc(-c4ccc(C#N)cc4)cs3)C(c3ccc(C)s3)C2)cc1OC` (stereo not drawn) [Compound 3g, 2-[3-(3,4-Dimethoxyphenyl)-5-(5-methylthiophen-2-yl)-4,5-dihydro-1H-pyrazol-1-yl]-4-(4-cyanophenyl)thiazole], in data set [1], the “SI (selectivity index) = K I” value was 0.057, the Ki is 45 ± 2 nM, half-maximal inhibition (IC50) was put at 338 nM and the “selectivity for AChE than” value is “highest selectivity for AChE; also recorded: more significant selectivity”. Also, in data set [2], the Ki was found to be 789 ± 56 nM and the midpoint of inhibition, the IC50, lay at 2090 nM. In addition, in data set [3], the viability at 24 h, 100 µM was 94%.
With `COc1ccc(C2=NN(c3nc(-c4ccc(Cl)cc4Cl)cs3)C(c3ccc(C)s3)C2)cc1OC` (stereo not drawn) [Compound 3h, 2-[3-(3,4-Dimethoxyphenyl)-5-(5-methylthiophen-2-yl)-4,5-dihydro-1H-pyrazol-1-yl]-4-(2,4-dichlorophenyl)thiazole], in data set [1], the “SI (selectivity index) = K I” value was 0.655, the Ki stood at 1100 ± 58 nM and the concentration for half-maximal inhibition (IC50) came to 5460 nM. For the same molecule, in data set [2], the Ki came to 1690 ± 82 nM and half-maximal inhibition (IC50) required 4990 nM. The viability at 24 h, 100 µM in data set [3] came to 138%.
As for `COc1ccc(C2=NN(c3nc(-c4ccc(F)cc4F)cs3)C(c3ccc(C)s3)C2)cc1OC` (stereo not drawn) [Compound 3i, 2-[3-(3,4-Dimethoxyphenyl)-5-(5-methylthiophen-2-yl)-4,5-dihydro-1H-pyrazol-1-yl]-4-(2,4-difluorophenyl)thiazole], in data set [1], the “SI (selectivity index) = K I” value is reported as 0.332, the Ki was determined as 529 ± 34 nM and the 50% inhibitory concentration (IC50) was 6420 nM. Also, in data set [2], the Ki stood at 1590 ± 78 nM and the concentration for half-maximal inhibition (IC50) was 7370 nM. The viability at 24 h, 100 µM in data set [3] turned out to be 86.4%.
With `COc1ccc(C2=NN(c3nc(-c4cccc([N+](=O)[O-])c4)cs3)C(c3ccc(C)s3)C2)cc1OC` (stereo not drawn) [Compound 3j, 2-[3-(3,4-Dimethoxyphenyl)-5-(5-methylthiophen-2-yl)-4,5-dihydro-1H-pyrazol-1-yl]-4-(3-nitrophenyl)thiazole], in data set [1], the “SI (selectivity index) = K I” value is reported as 0.178, the Ki is 423 ± 23 nM, the IC50 was determined as 4030 nM and the “selectivity for AChE than” value is “more significant selectivity”. In data set [2], the Ki turned out to be 2370 ± 114 nM and the IC50 came out at 4920 nM. In addition, the viability at 24 h, 100 µM in data set [3] is 102%.
